ChEMBL document CHEMBL2440076, “New triarylpyrazoles as broad-spectrum anticancer agents: design, synthesis, and biological evaluation” (Eur J Med Chem, 2013)

Legend:
Type in all cases: functional
SK-MEL-5 = assay: Growth inhibition of human SK-MEL-5 cells assessed as cell growth at 5X10'-8 M after 48 hrs by sulforhodamine B assay; details: SK-MEL-5, 48 h, read-out: Activity
MDA-MB-468 = assay: Growth inhibition of human MDA-MB-468 cells assessed as cell growth at 5X10'-5 M after 48 hrs by sulforhodamine B assay; details: MDA-MB-468, 48 h, read-out: Activity
KM12 [1] = assay: Growth inhibition of human KM12 cells assessed as cell growth at 5X10'-6 M after 48 hrs by sulforhodamine B assay; details: KM12, 48 h, read-out: Activity
U-251 [2] = assay: Growth inhibition of human U251 cells assessed as cell growth at 5X10'-8 M after 48 hrs by sulforhodamine B assay; details: U-251, 48 h, read-out: Activity
SF-539 = assay: Growth inhibition of human SF539 cells assessed as cell growth at 5X10'-6 M after 48 hrs by sulforhodamine B assay; details: SF-539, 48 h, read-out: Activity
DU-145 = assay: Growth inhibition of human DU145 cells assessed as cell growth at 5X10'-9 M after 48 hrs by sulforhodamine B assay; details: DU-145, 48 h, read-out: Activity
HOP-62 [3] = assay: Growth inhibition of human HOP62 cells assessed as cell growth at 5X10'-5 M after 48 hrs by sulforhodamine B assay; details: HOP-62, 48 h, read-out: Activity
SNB-19 = assay: Growth inhibition of human SNB19 cells assessed as cell growth at 5X10'-7 M after 48 hrs by sulforhodamine B assay; details: SNB-19, 48 h, read-out: Activity
SK-MEL-28 = assay: Growth inhibition of human SK-MEL-28 cells assessed as cell growth at 5X10'-5 M after 48 hrs by sulforhodamine B assay; details: SK-MEL-28, 48 h, read-out: Activity
TK-10 = assay: Growth inhibition of human TK10 cells assessed as cell growth at 5X10'-9 M after 48 hrs by sulforhodamine B assay; details: TK-10, 48 h, read-out: Activity
NCI-H23 = assay: Growth inhibition of human NCI-H23 cells assessed as cell growth at 5X10'-8 M after 48 hrs by sulforhodamine B assay; details: NCI-H23, 48 h, read-out: Activity
NCI-H460 = assay: Growth inhibition of human NCI-H460 cells assessed as cell growth at 5X10'-6 M after 48 hrs by sulforhodamine B assay; details: NCI-H460, 48 h, read-out: Activity
RPMI-8226 = assay: Growth inhibition of human RPMI8226 cells assessed as cell growth at 5X10'-5 M after 48 hrs by sulforhodamine B assay; details: RPMI-8226, 48 h, read-out: Activity
OVCAR-3 = assay: Growth inhibition of human OVCAR3 cells assessed as cell growth at 5X10'-8 M after 48 hrs by sulforhodamine B assay; details: OVCAR-3, 48 h, read-out: Activity
HCT-15 [4] = assay: Growth inhibition of human HCT15 cells assessed as cell growth at 5X10'-7 M after 48 hrs by sulforhodamine B assay; details: HCT-15, 48 h, read-out: Activity
NCI-H322M = assay: Growth inhibition of human NCI-H322M cells assessed as cell growth at 5X10'-5 M after 48 hrs by sulforhodamine B assay; details: read-out: Activity
Malme-3M [5] = assay: Growth inhibition of human MALME-3M cells assessed as cell growth at 5X10'-5 M after 48 hrs by sulforhodamine B assay; details: read-out: Activity
HOP-62 [6] = assay: Growth inhibition of human HOP62 cells assessed as cell growth at 5X10'-7 M after 48 hrs by sulforhodamine B assay; details: HOP-62, 48 h, read-out: Activity
A498 = assay: Growth inhibition of human A498 cells assessed as cell growth at 5X10'-5 M after 48 hrs by sulforhodamine B assay; details: A498, 48 h, read-out: Activity
OVCAR-5 [7] = assay: Growth inhibition of human OVCAR5 cells assessed as cell growth at 5X10'-9 M after 48 hrs by sulforhodamine B assay; details: OVCAR-5, 48 h, read-out: Activity
Malme-3M [8] = assay: Growth inhibition of human MALME-3M cells assessed as cell growth at 5X10'-6 M after 48 hrs by sulforhodamine B assay; details: read-out: Activity
HL-60(TB) [9] = assay: Growth inhibition of human HL-60(TB) cells assessed as cell growth at 5X10'-6 M after 48 hrs by sulforhodamine B assay; details: HL-60, 48 h, read-out: Activity
CAKI-1 = assay: Growth inhibition of human CAKI-1 cells assessed as cell growth at 5X10'-6 M after 48 hrs by sulforhodamine B assay; details: CAKI-1, 48 h, read-out: Activity
HL-60(TB) [10] = assay: Growth inhibition of human HL-60(TB) cells assessed as cell growth at 5X10'-5 M after 48 hrs by sulforhodamine B assay; details: HL-60, 48 h, read-out: Activity
MCF7 = assay: Growth inhibition of human MCF7 cells assessed as cell growth at 5X10'-9 M after 48 hrs by sulforhodamine B assay; details: MCF7, 48 h, read-out: Activity
SR = assay: Growth inhibition of human SR cells assessed as cell growth at 5X10'-8 M after 48 hrs by sulforhodamine B assay; details: read-out: Activity
HOP-92 = assay: Growth inhibition of human HOP92 cells assessed as cell growth at 5X10'-6 M after 48 hrs by sulforhodamine B assay; details: HOP-92, 48 h, read-out: Activity
OVCAR-8 [11] = assay: Growth inhibition of human OVCAR8 cells assessed as cell growth at 5X10'-9 M after 48 hrs by sulforhodamine B assay; details: OVCAR-8, 48 h, read-out: Activity
OVCAR-5 [12] = assay: Growth inhibition of human OVCAR5 cells assessed as cell growth at 5X10'-5 M after 48 hrs by sulforhodamine B assay; details: OVCAR-5, 48 h, read-out: Activity
KM12 [13] = assay: Growth inhibition of human KM12 cells assessed as cell growth at 5X10'-7 M after 48 hrs by sulforhodamine B assay; details: KM12, 48 h, read-out: Activity
SF-295 [14] = assay: Growth inhibition of human SF295 cells assessed as cell growth at 5X10'-8 M after 48 hrs by sulforhodamine B assay; details: SF-295, 48 h, read-out: Activity
OVCAR-8 [15] = assay: Growth inhibition of human OVCAR8 cells assessed as cell growth at 5X10'-8 M after 48 hrs by sulforhodamine B assay; details: OVCAR-8, 48 h, read-out: Activity
786-0 = assay: Growth inhibition of human 786-0 cells assessed as cell growth at 5X10'-5 M after 48 hrs by sulforhodamine B assay; details: 786-0, 48 h, read-out: Activity
U-251 [16] = assay: Growth inhibition of human U251 cells assessed as cell growth at 5X10'-9 M after 48 hrs by sulforhodamine B assay; details: U-251, 48 h, read-out: Activity
HCT-15 [17] = assay: Growth inhibition of human HCT15 cells assessed as cell growth at 5X10'-5 M after 48 hrs by sulforhodamine B assay; details: HCT-15, 48 h, read-out: Activity
[18] = Growth inhibition of human Hs 578T cells assessed as cell growth at 5X10'-6 M after 48 hrs by sulforhodamine B assay; details: read-out: Activity
SF-295 [19] = assay: Growth inhibition of human SF295 cells assessed as cell growth at 5X10'-9 M after 48 hrs by sulforhodamine B assay; details: SF-295, 48 h, read-out: Activity

Row | SMILES | growth at 0.05 µM (SK-MEL-5) [%] | growth at 50 µM (MDA-MB-468) [%] | growth at 5 µM (KM12 [1]) [%] | growth at 0.05 µM (U-251 [2]) [%] | growth at 5 µM (SF-539) [%] | growth at 0.005 µM (DU-145) [%] | growth at 50 µM (HOP-62 [3]) [%] | growth at 0.5 µM (SNB-19) [%] | growth at 50 µM (SK-MEL-28) [%] | growth at 0.005 µM (TK-10) [%] | growth at 0.05 µM (NCI-H23) [%] | growth at 5 µM (NCI-H460) [%] | growth at 50 µM (RPMI-8226) [%] | growth at 0.05 µM (OVCAR-3) [%] | growth at 0.5 µM (HCT-15 [4]) [%] | growth at 50 µM (NCI-H322M) [%] | growth at 50 µM (Malme-3M [5]) [%] | growth at 0.5 µM (HOP-62 [6]) [%] | growth at 50 µM (A498) [%] | growth at 0.005 µM (OVCAR-5 [7]) [%] | also measured
1 | COc1cc(-c2nn(-c3cccc(NC(=O)Nc4cc(C(F)(F)F)cc(C(F)(F)F)c4)c3)cc2-c2ccncc2)ccc1Cl | 95 | -53 | -71 | 94 | -74 | 106 | -95 | 61 | -87 | 94 | 100 | -41 | 3 | 109 | 61 | -58 | -63 | 93 | -89 | 87 | growth at 5 µM (Malme-3M [8]): -47%; growth at 5 µM (HL-60(TB) [9]): 8%; growth at 5 µM (CAKI-1): -20%; growth at 50 µM (HL-60(TB) [10]): 6%; growth at 0.005 µM (MCF7): 92%; growth at 0.05 µM (SR): 103%; growth at 5 µM (HOP-92): -52%; growth at 0.005 µM (OVCAR-8 [11]): 101%; growth at 50 µM (OVCAR-5 [12]): -72%; growth at 0.5 µM (KM12 [13]): 53%; growth at 0.05 µM (SF-295 [14]): 94%; growth at 0.05 µM (OVCAR-8 [15]): 97%; growth at 50 µM (786-0): -63%; growth at 0.005 µM (U-251 [16]): 97%; growth at 50 µM (HCT-15 [17]): -75%; growth at 5 µM [18]: -12%; growth at 0.005 µM (SF-295 [19]): 90%
2 | COc1cc(-c2nn(-c3cccc(NC(=O)Nc4ccc(Cl)c(Cl)c4)c3)cc2-c2ccncc2)ccc1Cl | 92 | -31 | -24 | 93 | -21 | 103 | -9 | 84 | -6 | 100 | 101 | 4 | -11 | 111 | 76 | 6 | -43 | 93 | -11 | 93 | growth at 5 µM (Malme-3M [8]): -38%; growth at 5 µM (HL-60(TB) [9]): 6%; growth at 5 µM (CAKI-1): -13%; growth at 50 µM (HL-60(TB) [10]): 3%; growth at 0.005 µM (MCF7): 91%; growth at 0.05 µM (SR): 105%; growth at 5 µM (HOP-92): -40%; growth at 0.005 µM (OVCAR-8 [11]): 99%; growth at 50 µM (OVCAR-5 [12]): 15%; growth at 0.5 µM (KM12 [13]): 70%; growth at 0.05 µM (SF-295 [14]): 88%; growth at 0.05 µM (OVCAR-8 [15]): 96%; growth at 50 µM (786-0): -20%; growth at 0.005 µM (U-251 [16]): 96%; growth at 50 µM (HCT-15 [17]): 5%; growth at 5 µM [18]: 11%; growth at 0.005 µM (SF-295 [19]): 93%
